The IC50 is the concentration that gives 50% inhibition. A low value points to greater potency. The ED50 is the midpoint of the dose-response relation.

Series [1] has as its target T1, 5HT2 receptors (Rattus norvegicus, UniProt P14842).
T1 construct: membrane corresponding to 1 mg of rat cortex; from tissue; host or cells: rat cortex membrane
The series is described as follows: Specific binding to 5HT2 receptors ([3H]ketanserin, rat cortex membrane). Particulars: [3H]ketanserin 0.5 nM, 30 min, 35° C., pH 7.4. The procedure: (§1) Specific binding to D2 and 5HT2 receptors was tested as follows:
5HT2 receptors: A 0.5 nM solution of radioactive ketanserin ([^3 H]ketanserin), which acts as a specific ligand, was incubated with the membrane corresponding to 1 mg of rat cortex for 30 min at 35° C. buffered at pH 7.4 with Tris.HCl. Non-specific binding was then determined by addition of 5 micromolar concentration of unlabelled mianserin. IC50 (inhibitory concentration 50%) was calculated from the inhibition rate of the specific binding obtained by addition of eleven different concentrations of the compounds to be tested. After the incubation was completed, the sample was filtered through a glass fiber filter and then washed three times with Tris.HCl buffer. The amount of receptor-bound radioactivity was retained on the membrane and determined by liquid scintillation counting.

The next series deals with T2, D2 receptors (Rattus norvegicus, UniProt P61169).
T2 construct: membrane corresponding to 20 mg of rat striatum; from tissue; host or cells: rat striatum membrane
The series is described as follows: Specific binding to D2 receptors ([3H]spiperone, rat striatum membrane). As to conditions: for IC50: [3H]spiperone 2 nM, rat striatum membrane, 20 min, 35° C., pH 7.4; for D2/5HT2 ratio: ratio of IC50 values, D2 over 5HT2. As to the method:
as §1
D2 receptors: A 2-nM solution of radioactive spiperone ([^3 H]spiperone), which acts as a specific ligand, was incubated with the membrane corresponding to 20 mg of rat striatum for 20 min at 35° C. buffered at pH 7.4 with Tris.HCl. The non-specific binding was then determined by addition of a micromolar concentration of unlabelled spiperone. […] After the incubation was completed, the sample was filtered through a glass fiber filter and then washed three times with Tris.HCl buffer. The amount of receptor-bound radioactivity was retained on the membrane and determined by liquid scintillation counting.

The nature of series [2]: Catalepsy by oral route in Sprague-Dawley rats. The format is in vivo. Particulars: for ED50: rat, in vivo, oral, Sprague-Dawley rats, 50% of treated animals showed catalepsy; for R (Catalepsy/Climbing): ratio of ED50 values.
Series [3] concerns the target T3, 5HT2 receptors (Mus musculus, UniProt P35363).
T3 construct: Male N.M.R.I. mice weighing 22-26 g were used; from tissue; host or cells: living male N.M.R.I. mice (whole animal, endogenous receptor)
The series is described as follows: Inhibition of DOI-induced head twitches and scratches. As to conditions: p.o., mice, DOI 3 mg/kg i.p. at 60 min. The format is in vivo, Male N.M.R.I. mice. The procedure:
(§2) The inhibiton test of apomorphine-induced climbing behaviour and the inhibition test of DOI-induced head twitches and scratches are hereinafter described.
Inhibition of DOI-induced head twitches and scratches
Male N.M.R.I. mice weighing 22-26 g were used. After the animals were weighed, they were individually placed in transparent cages two hours prior to experiment. Test compound was given p.o. at time 0. The administration interval time between mice was 5 min. At time 60 min DOI at the dose of 3 mg/kg i.p. dissolved in saline was administered. The number of head twitches and scratches were assessed as well as the presence or absence of escape attempts.

The subject of series [4] is apomorphine-induced climbing behaviour. In words: Inhibition of apomorphine-induced climbing behaviour. As to conditions: Mus musculus, 1 h; oral, mice, apomorphine 1 mg/kg s.c. at 60 min. The format is in vivo, Male Swiss mice. The procedure:
as §2
Inhibition of aoomorphine-induced climbing behaviour
Male Swiss mice weighing 22-24 g were used. One week prior to experiment, animals were kept in our facilities at a temperature of 20°-22° C. and 12/12 h light-dark cycle, and had free access to food and water. Two hours prior to experiment, the animals were placed in individual cages without access to food.
Animals were administered orally with test drug or 0.25% agar at time 0. After 60 minutes, apomorphine was subcutaneously injected at a dose of 1 mg/kg, and after further 70 minutes the animal's behaviour was assessed. Two additional assessments were performed at 10-min intervals. For assessment, each animal was placed on the bottom of a small upright box (11×7.5×4.5 cm). The walls of the box were made of translucent methacrylate except one of the lateral surfaces (7.5 cm wide) which was a 3-mm wire mesh. The position of the animal was scored for 2 minutes according to the following criteria: 0=four paws on the floor; 1=three paws on the floor; 2=two paws on the floor; 3=one paw on the floor; and 4=four paws holding the wire mesh. If an animal keeps several positions within the 2-min observation, the seconds elapsed in each position will be recorded. Finally, mean scoring was calculated.

Where only a bound is given, the exact number is not on record here.

T1 sequence (P14842 whole entry): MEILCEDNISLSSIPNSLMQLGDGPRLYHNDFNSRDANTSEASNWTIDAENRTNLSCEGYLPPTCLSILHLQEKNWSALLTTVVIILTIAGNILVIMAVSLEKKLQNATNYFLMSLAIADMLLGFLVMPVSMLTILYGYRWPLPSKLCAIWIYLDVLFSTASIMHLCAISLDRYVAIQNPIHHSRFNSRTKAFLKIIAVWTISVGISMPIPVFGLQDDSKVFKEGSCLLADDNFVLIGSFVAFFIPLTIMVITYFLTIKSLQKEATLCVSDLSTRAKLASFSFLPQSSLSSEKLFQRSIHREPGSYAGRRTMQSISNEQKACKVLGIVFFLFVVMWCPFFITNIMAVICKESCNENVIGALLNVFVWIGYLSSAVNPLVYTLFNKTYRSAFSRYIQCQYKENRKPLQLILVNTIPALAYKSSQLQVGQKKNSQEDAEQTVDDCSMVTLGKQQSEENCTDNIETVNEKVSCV
T2 sequence (P61169 whole entry): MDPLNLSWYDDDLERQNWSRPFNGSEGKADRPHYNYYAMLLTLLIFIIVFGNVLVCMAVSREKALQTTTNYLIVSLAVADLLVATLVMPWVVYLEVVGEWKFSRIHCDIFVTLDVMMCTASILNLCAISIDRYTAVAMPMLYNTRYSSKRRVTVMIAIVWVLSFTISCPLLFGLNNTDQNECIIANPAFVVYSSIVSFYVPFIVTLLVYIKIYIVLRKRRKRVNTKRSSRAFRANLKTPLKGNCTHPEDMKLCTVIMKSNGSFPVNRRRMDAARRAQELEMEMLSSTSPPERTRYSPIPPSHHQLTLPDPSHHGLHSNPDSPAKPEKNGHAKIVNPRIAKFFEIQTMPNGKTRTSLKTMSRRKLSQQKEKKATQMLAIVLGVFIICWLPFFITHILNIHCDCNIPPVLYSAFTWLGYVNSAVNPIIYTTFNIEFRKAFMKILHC
T3 sequence (P35363 whole entry): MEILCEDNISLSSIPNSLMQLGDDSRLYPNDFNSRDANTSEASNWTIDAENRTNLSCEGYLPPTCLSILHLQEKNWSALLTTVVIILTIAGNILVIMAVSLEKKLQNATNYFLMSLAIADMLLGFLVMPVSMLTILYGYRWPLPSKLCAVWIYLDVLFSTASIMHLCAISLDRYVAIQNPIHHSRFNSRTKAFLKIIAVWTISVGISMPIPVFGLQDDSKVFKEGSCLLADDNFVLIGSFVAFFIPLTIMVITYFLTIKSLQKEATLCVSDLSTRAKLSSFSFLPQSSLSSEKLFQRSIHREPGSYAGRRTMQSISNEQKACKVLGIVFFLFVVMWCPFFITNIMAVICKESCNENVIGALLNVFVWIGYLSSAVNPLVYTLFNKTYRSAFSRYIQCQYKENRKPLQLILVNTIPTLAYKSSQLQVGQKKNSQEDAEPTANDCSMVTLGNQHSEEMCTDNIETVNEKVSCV

As for `Cc1nc2scc(-c3ccc(Cl)c(Cl)c3)n2c(=O)c1CCN1CCC(c2noc3cc(F)ccc23)CC1` [Example 20], the IC50 at 5HT2 receptors [1] was determined as 35.2 nM; at D2 receptors, 19.4 nM. In addition, the D2/5HT2 ratio at D2 receptors amounted to 0.6.
For `COc1cccc(-c2csc3nc(C)c(CCN4CCC(c5noc6cc(F)ccc56)CC4)c(=O)n23)c1` [Example 22], in series [2], the ED50 came to 40 mg/kg and the “R (Catalepsy/Climbing)” value came out at 2.1. Besides, the “ED50 DOI” value at 5HT2 receptors [3] is on record as 1.10 mg/kg. In series [4], it took a dose of 19 mg/kg to reach the 50% effect level (ED50). For the same compound, the IC50 at 5HT2 receptors [1] was determined as 7.46 nM. For the same compound, at D2 receptors, the IC50 came to 28 nM and the D2/5HT2 ratio was 3.8.
Consider `Cc1nc2scc(-c3cccc(Cl)c3)n2c(=O)c1CCN1CCC(c2noc3cc(F)ccc23)CC1` [Example 21], for which the IC50 on 5HT2 receptors [1] is 24.5 nM. In addition, at D2 receptors, the IC50 was found to be 16.6 nM and the D2/5HT2 ratio is given as 0.7.
In the same order, the values of `Cc1nc2scc(-c3cccc(C(F)(F)F)c3)n2c(=O)c1CCN1CCC(c2noc3cc(F)ccc23)CC1` [Example 25] are 83.3 nM, 20.9 nM and 0.3.
As to `COc1ccc(-c2csc3nc(C)c(CCN4CCC(C(=O)c5ccc(F)cc5)CC4)c(=O)n23)cc1` [Example 28], in series [2], the ED50 was greater than 50 mg/kg and the “R (Catalepsy/Climbing)” value is given as greater than 2.0. For the same compound, at 5HT2 receptors [3], the “ED50 DOI” value was 0.60 mg/kg. Besides, the ED50 in series [4] was 24.6 mg/kg. Moreover, the IC50 on 5HT2 receptors [1] was 8.26 nM. In addition, on D2 receptors, the IC50 came out at 79.9 nM and the D2/5HT2 ratio was 9.7.
For the compound `Cc1nc2scc(-c3ccccc3)n2c(=O)c1CCN1CCC(C(=O)c2ccc(F)cc2)CC1` [Example 27], the ED50 in series [2] and in series [4] was greater than 50 mg/kg throughout. The “ED50 DOI” value at 5HT2 receptors [3] amounted to 1.20 mg/kg. The IC50 was 12.5 nM on 5HT2 receptors [1] and 174 nM at D2 receptors. On D2 receptors, the D2/5HT2 ratio was 13.9.
On to `Cc1nc2scc(-c3ccc(Cl)cc3)n2c(=O)c1CCN1CCC(c2noc3cc(F)ccc23)CC1` [Example 19], for which, in series [2], the 50% effect level (ED50) was put at a dose of 9.5 mg/kg and the “R (Catalepsy/Climbing)” value is recorded as 2.7. Besides, on 5HT2 receptors [3], the “ED50 DOI” value is on record as 0.82 mg/kg. This compound also displayed an ED50 in series [4] of 3.5 mg/kg. The same compound had an IC50 at 5HT2 receptors [1] of 11.1 nM. At D2 receptors, the IC50 stood at 43.6 nM and the D2/5HT2 ratio is 3.9.
Consider `Cc1nc2scc(-c3ccccc3)n2c(=O)c1CCN1CCC(c2noc3cc(F)ccc23)CC1` [Example 15, 6-[2-[4-(6-fluoro-1,2-benzisoxazol-3-yl)-1-piperidinyl]ethyl]-3-phenyl-7-methyl-5H-thiazolo[3,2-a]pyrimidin-5-one], for which, in series [2], the ED50 was found to be 16 mg/kg and the “R (Catalepsy/Climbing)” value is 1.1. Moreover, at 5HT2 receptors [3], the “ED50 DOI” value came out at 0.58 mg/kg. The ED50 in series [4] amounted to 14.7 mg/kg. In addition, at 5HT2 receptors [1], the IC50 worked out at 3.94 nM. Further, at D2 receptors, the half-maximal inhibitory concentration (IC50) was determined as 44.1 nM and the D2/5HT2 ratio was 11.2.
In the case of `Cc1nc2scc(-c3ccccc3Cl)n2c(=O)c1CCN1CCC(c2noc3cc(F)ccc23)CC1` [Example 24], the ED50 in series [2] and in series [4] was greater than 50 mg/kg in each case. Moreover, the “ED50 DOI” value at 5HT2 receptors [3] was 1.50 mg/kg. Also, the values for the IC50 at 5HT2 receptors [1] and on D2 receptors were 29.5 nM and 29.2 nM, respectively. Also, the D2/5HT2 ratio on D2 receptors is 1.0.
Regarding `COc1ccc(-c2csc3nc(C)c(CCN4CCC(c5noc6cc(F)ccc56)CC4)c(=O)n23)cc1` [Example 16, 6-[2-[4-(6-fluoro-1,2-benzisoxazol-3-yl)-1-piperidinyl]ethyl]-3-(4-methoxyphenyl)-7-methyl-5H-thiazolo[3,2-a]pyrimidin-5-one], in series [2], it took a dose of 30 mg/kg to reach the 50% effect level (ED50) and the “R (Catalepsy/Climbing)” value amounted to 4.1. At 5HT2 receptors [3], the “ED50 DOI” value is 0.84 mg/kg. The same compound registered an ED50 in series [4] of 7.4 mg/kg. Further, the 50% inhibitory concentration (IC50) at 5HT2 receptors [1] came out at 8.32 nM. Also, on D2 receptors, the half-inhibitory concentration (IC50) stood at 42.1 nM and the D2/5HT2 ratio is 5.1.
For `O=C(CCCN1CCC(O)(c2ccc(Cl)cc2)CC1)c1ccc(F)cc1` [Haloperidol, reference compound], the results for the ED50 in series [2] and in series [4] were 1.95 mg/kg and 1.2 mg/kg, respectively.
For `Cc1nc2scc(-c3ccc4c(c3)OCO4)n2c(=O)c1CCN1CCC(c2noc3cc(F)ccc23)CC1` [Example 18], in series [2], the 50% effect level (ED50) was put at a dose of 20 mg/kg and the “R (Catalepsy/Climbing)” value is given as 2.6. Besides, at 5HT2 receptors [3], the “ED50 DOI” value is recorded as 0.80 mg/kg. Also, in series [4], the ED50 stood at 7.7 mg/kg. The compound also displayed an IC50 at 5HT2 receptors [1] of 7.63 nM. At D2 receptors, the half-maximal inhibitory concentration (IC50) was 17.3 nM and the D2/5HT2 ratio is listed as 2.3.
`Cc1ccc(-c2csc3nc(C)c(CCN4CCC(c5noc6cc(F)ccc56)CC4)c(=O)n23)cc1` [Example 17, 6-[2-[4-(6-fluoro-1,2-benzisoxazol-3-yl)-1-piperidinyl]ethyl]-3-(4-methylphenyl)-7-methyl-5H-thiazolo[3,2-a]pyrimidin-5-one]: in series [2], the ED50 was 22.5 mg/kg and the “R (Catalepsy/Climbing)” value is given as 5.8. Also, the “ED50 DOI” value on 5HT2 receptors [3] was 0.57 mg/kg. The 50% effect level in series [4] (ED50) was put at a dose of 3.9 mg/kg. This compound also displayed a half-maximal inhibitory concentration (IC50) on 5HT2 receptors [1] of 14.9 nM. Further, on D2 receptors, the concentration for half-maximal inhibition (IC50) worked out at 36.4 nM and the D2/5HT2 ratio came out at 2.4.
For the compound `Cc1cccc(-c2csc3nc(C)c(CCN4CCC(c5noc6cc(F)ccc56)CC4)c(=O)n23)c1` [Example 23], the half-maximal inhibitory concentration (IC50) on 5HT2 receptors [1] turned out to be 32.1 nM. Further, at D2 receptors, the IC50 is 22.3 nM and the D2/5HT2 ratio is reported as 0.7.
For the compound `Cc1nc2scc(-c3ccc(F)cc3)n2c(=O)c1CCN1CCC(c2noc3cc(F)ccc23)CC1` [Example 14, 6-[2-[4-(6-fluoro-1,2-benzisoxazol-3-yl)-1-piperidinyl]ethyl]-3-(4-fluorophenyl)-7-methyl-5H-thiazolo[3,2-a]pyrimidin-5-one], the ED50 in series [2] was determined as 9.3 mg/kg; in series [4], 2.9 mg/kg. Besides, in series [2], the “R (Catalepsy/Climbing)” value came out at 3.2. The “ED50 DOI” value at 5HT2 receptors [3] came out at 0.28 mg/kg. Further, the IC50 on 5HT2 receptors [1] came out at 3.18 nM; at D2 receptors, 19.7 nM. On D2 receptors, the D2/5HT2 ratio was determined as 6.2.
For the compound `Cc1nc2scc(-c3ccccc3F)n2c(=O)c1CCN1CCC(c2noc3cc(F)ccc23)CC1` [Example 26], the ED50 in series [2] and in series [4] was greater than 50 mg/kg throughout. Besides, the “ED50 DOI” value on 5HT2 receptors [3] is given as 0.42 mg/kg. The IC50 is 3.51 nM at 5HT2 receptors [1] and 82 nM on D2 receptors. Moreover, the D2/5HT2 ratio at D2 receptors is 23.4.

The values are drawn from patent US5798361A, “5H-thiazolo[3,2-a]pyrimidin-5-one derivatives” (Ferrer Internacional, S.A., priority 1995, dated 1998).
